Read-outs that look alike come from different tables or passages of the source.
Columns and labels:
[1] = target: T1, CDK4 (Homo sapiens, UniProt P11802); test: CDK4 percentage degradation in Calu-1 cells (immunoblotting); format: cell-based; conditions: for inhibition at 0.2 µM: read-out: CDK4 Degradation (200 nM); for inhibition at 10 µM: read-out: CDK4 Degradation (10 μM)
T1 construct: endogenous in cells; host or cells: Calu-1
Procedure: (§1) […] A: protein percentage degradation >=80%; B: protein percentage degradation <80%, and >=50%; C: protein percentage degradation <50%, and >=30%; D: protein percentage degradation <30%.
(§2) Cultured cells were washed with cold PBS once and lysed in cold RIPA buffer supplemented with protease inhibitors and phosphatase inhibitors (Beyotime Biotechnology). The solutions were then incubated at 4° C. for 30 min with gentle agitation to fully lysed cells. Cell lysates were centrifuged at 13,000 rpm for 10 min at 4° C. and pellets were discarded. Total protein concentrations in the lysates were determined following BCA assays (Beyotime Biotechnology). Cell lysates were mixed with Laemmli loading buffer and heated at 99° C. for 5 min. Proteins were resolved on SDS-PAGE and visualized using Western ECL Substrate kits on a ChemiDoc MP Imaging system (Bio-Rad). Protein bands were quantitated using the Image Lab software provided by Bio-Rad.

[2] = test system: cyclin D1; test: Cyclin D1 percentage degradation in Calu-1 cells (immunoblotting); format: cell-based; conditions: 16 hours
Procedure: as §1, §2

T1 sequence (P11802 2-303 limits assumed): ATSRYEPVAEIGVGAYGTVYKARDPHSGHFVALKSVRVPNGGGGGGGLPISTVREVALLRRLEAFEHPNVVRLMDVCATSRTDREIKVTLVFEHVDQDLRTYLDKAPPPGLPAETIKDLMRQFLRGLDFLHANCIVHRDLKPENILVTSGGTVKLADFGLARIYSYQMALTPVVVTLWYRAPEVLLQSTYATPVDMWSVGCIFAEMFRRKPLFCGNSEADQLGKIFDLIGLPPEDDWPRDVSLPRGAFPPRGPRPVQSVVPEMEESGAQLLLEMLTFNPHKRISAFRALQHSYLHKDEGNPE
T1 sequence (P24385 whole entry partner): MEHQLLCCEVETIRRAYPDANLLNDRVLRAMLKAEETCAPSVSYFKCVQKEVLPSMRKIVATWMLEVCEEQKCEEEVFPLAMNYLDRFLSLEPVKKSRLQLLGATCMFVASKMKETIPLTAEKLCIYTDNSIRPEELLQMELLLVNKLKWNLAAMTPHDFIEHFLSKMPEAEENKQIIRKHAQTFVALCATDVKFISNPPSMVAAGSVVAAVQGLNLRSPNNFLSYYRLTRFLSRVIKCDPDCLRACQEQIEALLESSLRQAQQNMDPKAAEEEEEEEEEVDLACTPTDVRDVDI
T1 sequence (Q16531 2-1140 limits assumed, further chain): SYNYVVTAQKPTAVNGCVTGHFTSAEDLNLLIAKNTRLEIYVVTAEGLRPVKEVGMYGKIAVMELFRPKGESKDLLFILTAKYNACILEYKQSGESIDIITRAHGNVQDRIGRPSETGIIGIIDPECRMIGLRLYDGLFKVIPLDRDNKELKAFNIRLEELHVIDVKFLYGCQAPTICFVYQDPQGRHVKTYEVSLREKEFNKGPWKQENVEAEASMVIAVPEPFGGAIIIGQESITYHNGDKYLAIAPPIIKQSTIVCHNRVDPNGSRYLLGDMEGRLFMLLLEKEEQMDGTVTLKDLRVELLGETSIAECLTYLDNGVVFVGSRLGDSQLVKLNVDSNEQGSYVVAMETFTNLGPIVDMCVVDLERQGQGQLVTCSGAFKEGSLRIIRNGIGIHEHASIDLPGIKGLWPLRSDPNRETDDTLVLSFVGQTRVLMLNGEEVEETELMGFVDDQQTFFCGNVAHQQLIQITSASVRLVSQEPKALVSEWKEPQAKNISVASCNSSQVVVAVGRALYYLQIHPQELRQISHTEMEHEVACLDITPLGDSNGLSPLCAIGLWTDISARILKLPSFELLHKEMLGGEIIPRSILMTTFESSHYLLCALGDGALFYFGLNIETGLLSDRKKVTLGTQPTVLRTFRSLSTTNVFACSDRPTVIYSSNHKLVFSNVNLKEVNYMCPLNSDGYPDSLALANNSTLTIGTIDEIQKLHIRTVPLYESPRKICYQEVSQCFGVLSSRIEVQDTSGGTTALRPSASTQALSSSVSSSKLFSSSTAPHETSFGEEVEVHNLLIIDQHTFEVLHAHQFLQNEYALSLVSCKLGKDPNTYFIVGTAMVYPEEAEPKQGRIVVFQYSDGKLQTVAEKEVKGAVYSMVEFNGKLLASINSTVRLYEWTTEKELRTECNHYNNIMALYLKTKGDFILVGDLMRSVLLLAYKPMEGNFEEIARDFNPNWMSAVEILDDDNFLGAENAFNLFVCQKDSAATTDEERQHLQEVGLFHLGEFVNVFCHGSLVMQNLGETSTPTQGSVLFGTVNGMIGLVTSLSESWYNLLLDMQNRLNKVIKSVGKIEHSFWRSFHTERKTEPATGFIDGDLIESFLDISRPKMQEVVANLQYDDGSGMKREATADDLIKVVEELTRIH

SMILES | inhibition at 0.2 µM ([1]; Calu-1 cells, 200 nM, 16 hours) [%] | CyclinD1 Degradation (200 nM) [2] | inhibition at 0.2 µM ([1]; Calu-1, 16 h) [%] | inhibition at 10 µM ([1]; Calu-1 cells, 16 hours) [%] | CyclinD1 Degradation (10 μM) [2]
COc1ccc(NC(=O)c2ccccc2NC(=O)CCOCCOCCNC(=O)CN2CCN(c3ccc(Nc4ncc5c(C)c(C(C)=O)c(=O)n(C6CCCC6)c5n4)nc3)CC2)nc1 [CPD-342, 2-(3-(2-(2-(2-(4-(6-((6-Acetyl-8-cyclopentyl-5-methyl-7-oxo-7,8-dihydropyrido[2,3-d]pyrimidin-2-yl)amino)pyridin-3-yl)piperazin-1-yl)acetamido)ethoxy)ethoxy)propanamido)-N-(5-methoxypyridin-2-yl)benzamide] | 50 to 80 | A (protein percentage degradation >=80%) |  |  | 
CC(=O)c1c(C)c2cnc(Nc3ccc(N4CCN(CCCCCCCC(=O)Nc5ccccc5C(=O)Nc5ccc(C)cn5)CC4)cn3)nc2n(C2CCCC2)c1=O [CPD-183, 2-(8-(4-(6-((6-Acetyl-8-cyclopentyl-5-methyl-7-oxo-7,8-dihydropyrido[2,3-d]pyrimidin-2-yl)amino)pyridin-3-yl)piperazin-1-yl)octanamido)-N-(5-methylpyridin-2-yl)benzamide] |  | D (protein percentage degradation <30%) | < 30 |  | 
CC(=O)c1c(C)c2cnc(Nc3ccc(N4CCN(CC(=O)NCCOCCOCCOCCOCCOCCOCCC(=O)Nc5ccccc5C(=O)Nc5nc(C)c(C)s5)CC4)cn3)nc2n(C2CCCC2)c1=O [CPD-173, 2-(1-(4-(6-((6-Acetyl-8-cyclopentyl-5-methyl-7-oxo-7,8-dihydropyrido[2,3-d]pyrimidin-2-yl)amino)pyridin-3-yl)piperazin-1-yl)-2-oxo-6,9,12,15,18,21-hexaoxa-3-azatetracosan-24-amido)-N-(4,5-dimethylthiazol-2-yl)benzamide] | > 80 | A (protein percentage degradation >=80%) |  |  | 
CC(=O)c1c(C)c2cnc(Nc3ccc(N4CCN(CC(=O)NCCOCCOCCOCCNc5ccc(C)c(C(=O)Nc6nc(C)c(C)s6)c5)CC4)cn3)nc2n(C2CCCC2)c1=O [CPD-127, 5-((1-(4-(6-((6-Acetyl-8-cyclopentyl-5-methyl-7-oxo-7,8-dihydropyrido[2,3-d]pyrimidin-2-yl)amino)pyridin-3-yl)piperazin-1-yl)-2-oxo-6,9,12-trioxa-3-azatetradecan-14-yl)amino)-N-(4,5-dimethylthiazol-2-yl)-2-methylbenzamide] |  | C (protein percentage degradation <50%, and >=30%) | 30 to 50 |  | 
Cc1nc(NC(=O)c2ccccc2NC(=O)CCCCCCCNC(=O)CN2CCN(c3ccc(Nc4ncc(F)c(-c5cc(F)c6nc(C)n(C(C)C)c6c5)n4)nc3)CC2)sc1C [CPD-306, N-(4,5-Dimethylthiazol-2-yl)-2-(8-(2-(4-(6-((5-fluoro-4-(4-fluoro-1-isopropyl-2-methyl-1H-benzo[d]imidazol-6-yl)pyrimidin-2-yl)amino)pyridin-3-yl)piperazin-1-yl)acetamido)octanamido)benzamide] |  |  |  | < 30 | D (protein percentage degradation < 30%)
Cc1nc(NC(=O)c2ccccc2NC(=O)CCOCCOCCOCCOCCNC(=O)CN2CCN(c3ccc(Nc4ncc5cc6n(c5n4)C4(CCCCC4)CNC6=O)nc3)CC2)sc1C [CPD-325, N-(4,5-Dimethylthiazol-2-yl)-2-(2-oxo-1-(4-(6-((6′-oxo-7′,8′-dihydro-6′H-spiro[cyclohexane-1,9′-pyrazino[1′,2′:1,5]pyrrolo[2,3-d]pyrimidin]-2′-yl)amino)pyridin-3-yl)piperazin-1-yl)-6,9,12,15-tetraoxa-3-azaoctadecan-18-amido)benzamide] |  |  |  | 50 to 80 | A (protein percentage degradation >= 80%)
CC(=O)c1c(C)c2cnc(Nc3ccc(N4CCN(CC(=O)NCCOCCOCCC(=O)Nc5ccccc5C(=O)Nc5ccc(C)c(C6CC6)n5)CC4)cn3)nc2n(C2CCCC2)c1=O [CPD-270, 2-(3-(2-(2-(2-(4-(6-((6-Acetyl-8-cyclopentyl-5-methyl-7-oxo-7,8-dihydropyrido[2,3-d]pyrimidin-2-yl)amino)pyridin-3-yl)piperazin-1-yl)acetamido)ethoxy)ethoxy)propanamido)-N-(6-cyclopropyl-5-methylpyridin-2-yl)benzamide] | 50 to 80 | A (protein percentage degradation >=80%) |  |  | 
CC(=O)c1c(C)c2cnc(Nc3ccc(N4CCN(C(=O)CCCCCNc5ccc(C)c(C(=O)Nc6nc(C)c(C)s6)c5)CC4)cn3)nc2n(C2CCCC2)c1=O [CPD-129, 5-((6-(4-(6-((6-Acetyl-8-cyclopentyl-5-methyl-7-oxo-7,8-dihydropyrido[2,3-d]pyrimidin-2-yl)amino)pyridin-3-yl)piperazin-1-yl)-6-oxohexyl)amino)-N-(4,5-dimethylthiazol-2-yl)-2-methylbenzamide] |  | D (protein percentage degradation <30%) | < 30 |  | 
CC(=O)c1nc(NC(=O)c2ccc(NCCOCCOCCOCCOCCOCCNC(=O)CN3CCN(c4ccc(Nc5ncc6c(C)c(C(C)=O)c(=O)n(C7CCCC7)c6n5)nc4)CC3)cc2C)sc1C [CPD-045, N-(4-Acetyl-5-methylthiazol-2-yl)-4-((1-(4-(6-((6-acetyl-8-cyclopentyl-5-methyl-7-oxo-7,8-dihydropyrido[2,3-d]pyrimidin-2-yl)amino)pyridin-3-yl)piperazin-1-yl)-2-oxo-6,9,12,15,18-pentaoxa-3-azaicosan-20-yl)amino)-2-methylbenzamide] | 50 to 80 | A (protein percentage degradation >=80%) |  |  | 
CC(=O)c1c(C)c2cnc(Nc3ccc(N4CCN(CC(=O)NCCOCCOCCOCCOCCOCCNc5ccc(C(=O)Nc6ncc(C(C)C)s6)c(C)c5)CC4)cn3)nc2n(C2CCCC2)c1=O [CPD-006, 4-((1-(4-(6-((6-Acetyl-8-cyclopentyl-5-methyl-7-oxo-7,8-dihydropyrido[2,3-d]pyrimidin-2-yl)amino)pyridin-3-yl)piperazin-1-yl)-2-oxo-6,9,12,15,18-pentaoxa-3-azaicosan-20-yl)amino)-N-(5-isopropylthiazol-2-yl)-2-methylbenzamide] | < 30 | D (protein percentage degradation <30%) |  |  | 
CC(=O)c1c(C)c2cnc(Nc3ccc(N4CCN(CC(=O)NCCOCCNc5cccc(C(=O)Nc6nc(C)c(C)s6)c5C)CC4)cn3)nc2n(C2CCCC2)c1=O [CPD-103, 3-((2-(2-(2-(4-(6-((6-Acetyl-8-cyclopentyl-5-methyl-7-oxo-7,8-dihydropyrido[2,3-d]pyrimidin-2-yl)amino)pyridin-3-yl)piperazin-1-yl)acetamido)ethoxy)ethyl)amino)-N-(4,5-dimethylthiazol-2-yl)-2-methylbenzamide] | < 30 | D (protein percentage degradation <30%) |  |  | 
Cc1nc(NC(=O)c2ccccc2NC(=O)CNC(=O)CN2CCN(c3ccc(Nc4ncc5cc6n(c5n4)C4(CCCCC4)CNC6=O)nc3)CC2)sc1C [CPD-314, N-(4,5-Dimethylthiazol-2-yl)-2-(2-(2-(4-(6-((6′-oxo-7′,8′-dihydro-6′H-spiro[cyclohexane-1,9′-pyrazino[1′,2′:1,5]pyrrolo[2,3-d]pyrimidin]-2′-yl)amino)pyridin-3-yl)piperazin-1-yl)acetamido)acetamido)benzamide] |  |  |  | < 30 | D (protein percentage degradation < 30%)
Cc1nc(NC(=O)c2ccccc2NC(=O)CCCCCCCNC(=O)CN2CCN(c3ccc(Nc4ncc5cc(C(=O)N(C)C)n(C6CCCC6)c5n4)nc3)CC2)sc1C [CPD-292, 7-Cyclopentyl-2-((5-(4-(2-((8-((2-((4,5-dimethylthiazol-2-yl)carbamoyl)phenyl)amino)-8-oxooctyl)amino)-2-oxoethyl)piperazin-1-yl)pyridin-2-yl)amino)-N,N-dimethyl-7H-pyrrolo[2,3-d]pyrimidine-6-carboxamide] |  |  |  | < 30 | B (protein percentage degradation < 80%, and >= 50%)
Cc1nc(NC(=O)c2ccccc2NC(=O)CCCCCCCCNC(=O)CN2CCN(c3ccc(Nc4ncc(F)c(-c5cc(F)c6nc(C)n(C(C)C)c6c5)n4)nc3)CC2)sc1C [CPD-307, N-(4,5-Dimethylthiazol-2-yl)-2-(9-(2-(4-(6-((5-fluoro-4-(4-fluoro-1-isopropyl-2-methyl-1H-benzo[d]imidazol-6-yl)pyrimidin-2-yl)amino)pyridin-3-yl)piperazin-1-yl)acetamido)nonanamido)benzamide] |  |  |  | < 30 | D (protein percentage degradation < 30%)
CC(=O)c1c(C)c2cnc(Nc3ccc(N4CCN(CC(=O)NCCOCCOCCC(=O)Nc5ccccc5C(=O)Nc5ccc(OC(C)C)nn5)CC4)cn3)nc2n(C2CCCC2)c1=O [CPD-351, 2-(3-(2-(2-(2-(4-(6-((6-Acetyl-8-cyclopentyl-5-methyl-7-oxo-7,8-dihydropyrido[2,3-d]pyrimidin-2-yl)amino)pyridin-3-yl)piperazin-1-yl)acetamido)ethoxy)ethoxy)propanamido)-N-(6-isopropoxypyridazin-3-yl)benzamide] | < 30 | D (protein percentage degradation <30%) |  |  | 

Reference: patent publication US20250235543A1, “MODIFIED PROTEINS AND PROTEIN DEGRADERS” (Cullgen (Shanghai), Inc., priority 2021, published 2025)
